# Assay results from patent publication US8450342B2, “Perharidines as CDK inhibitors” (Centre Nationale de la Recherche Scientifique, priority 2008, dated 2013).
# Read-outs that look alike come from different tables or passages of the source.
# Columns and labels:
# GSK-3α/β = GSK-3α/β kinase assay; assay type: biochemical, porcine
# Protocol: (§1) Blank values were subtracted and activities expressed in % of the maximal activity, i.e. in the absence of inhibitors. Controls were performed with appropriate dilutions of dimethylsulfoxide.
# CDK5/p25 = target: T1, CDK5/p25 (Homo sapiens, UniProt Q00535); experiment: CDK5/p25 kinase assay; assay type: biochemical
# T1 construct: made in house
# T1 sequence (Q00535 whole entry): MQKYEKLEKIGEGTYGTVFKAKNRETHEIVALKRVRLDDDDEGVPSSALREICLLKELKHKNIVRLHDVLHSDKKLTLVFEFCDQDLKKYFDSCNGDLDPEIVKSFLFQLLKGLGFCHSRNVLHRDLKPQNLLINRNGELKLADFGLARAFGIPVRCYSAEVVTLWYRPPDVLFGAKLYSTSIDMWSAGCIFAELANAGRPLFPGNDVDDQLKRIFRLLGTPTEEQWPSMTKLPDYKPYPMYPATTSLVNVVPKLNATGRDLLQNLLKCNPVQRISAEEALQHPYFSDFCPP
# T1 sequence (Q15078 99-307 partner limits assumed): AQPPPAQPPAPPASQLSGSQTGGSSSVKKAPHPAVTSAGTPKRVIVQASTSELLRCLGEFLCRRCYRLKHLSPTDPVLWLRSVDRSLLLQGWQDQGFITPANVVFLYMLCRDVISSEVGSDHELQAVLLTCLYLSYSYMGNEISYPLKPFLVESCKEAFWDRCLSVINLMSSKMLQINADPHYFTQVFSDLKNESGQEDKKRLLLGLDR
# Protocol: (§2) Controls were performed with appropriate dilutions of dimethylsulfoxide.
# (§3) ATP (3,000 Ci/mmol; 10 mCi/ml) in a final volume of 30 μl. After 30 min. incubation at 30° C., 25 μl aliquots of supernatant were spotted onto 2.5×3 cm pieces of Whatman P81 phosphocellulose paper, and, 20 sec. later, the filters were washed five times (for at least 5 min. each time) in a solution of 10 ml phosphoric acid/liter of water. The wet filters were counted in the presence of 1 ml ACS (Amersham) scintillation fluid.
# [1] = tested on: SH-SY5Y human neuroblastoma cells; experiment: Cell survival (MTS assay), SH-SY5Y; assay type: cell-based
# Protocol: (§4) SH-SY5Y human neuroblastoma cells were grown in DMEM medium (Invitrogen, Cergy Pontoise, France). […] Human foreskin primary fibroblasts (kindly provided by Dr. Gilles Ponzio) were grown in DMEM supplemented with 2 mM L-glutamine and 20 mM HEPES. All the media were supplemented with antibiotics (penicillin-streptomycin) from Lonza and 10% volume of FCS from Invitrogen. Cells were cultured at 37° C. with 5% CO2. Drug treatments were performed on exponentially growing cultures at the indicated time and concentrations. Control experiments were carried out using appropriate dilutions of DMSO. MDCK cell-lines were used to test compounds PKD.
# CDK1/cyclin B = CDK1/cyclin B kinase assay; assay type: biochemical, starfish
# Protocol: as §2, §3
# CDK9/cyclin T = target: T2, CDK9/cyclin T (Homo sapiens, UniProt P50750); experiment: CDK9/cyclin T kinase assay; assay type: biochemical
# T2 construct: made in house; host or cells: insect cells
# T2 sequence (P50750 whole entry): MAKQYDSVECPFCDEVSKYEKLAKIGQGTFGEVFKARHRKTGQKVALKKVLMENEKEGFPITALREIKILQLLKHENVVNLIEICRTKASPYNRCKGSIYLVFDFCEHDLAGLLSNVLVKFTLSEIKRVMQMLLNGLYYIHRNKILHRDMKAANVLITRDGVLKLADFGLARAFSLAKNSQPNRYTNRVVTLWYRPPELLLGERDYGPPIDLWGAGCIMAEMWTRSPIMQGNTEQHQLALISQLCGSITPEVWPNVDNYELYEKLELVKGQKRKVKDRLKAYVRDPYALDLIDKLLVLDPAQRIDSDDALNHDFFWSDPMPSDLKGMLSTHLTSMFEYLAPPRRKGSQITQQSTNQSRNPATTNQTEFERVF
# T2 sequence (O60563 whole entry partner): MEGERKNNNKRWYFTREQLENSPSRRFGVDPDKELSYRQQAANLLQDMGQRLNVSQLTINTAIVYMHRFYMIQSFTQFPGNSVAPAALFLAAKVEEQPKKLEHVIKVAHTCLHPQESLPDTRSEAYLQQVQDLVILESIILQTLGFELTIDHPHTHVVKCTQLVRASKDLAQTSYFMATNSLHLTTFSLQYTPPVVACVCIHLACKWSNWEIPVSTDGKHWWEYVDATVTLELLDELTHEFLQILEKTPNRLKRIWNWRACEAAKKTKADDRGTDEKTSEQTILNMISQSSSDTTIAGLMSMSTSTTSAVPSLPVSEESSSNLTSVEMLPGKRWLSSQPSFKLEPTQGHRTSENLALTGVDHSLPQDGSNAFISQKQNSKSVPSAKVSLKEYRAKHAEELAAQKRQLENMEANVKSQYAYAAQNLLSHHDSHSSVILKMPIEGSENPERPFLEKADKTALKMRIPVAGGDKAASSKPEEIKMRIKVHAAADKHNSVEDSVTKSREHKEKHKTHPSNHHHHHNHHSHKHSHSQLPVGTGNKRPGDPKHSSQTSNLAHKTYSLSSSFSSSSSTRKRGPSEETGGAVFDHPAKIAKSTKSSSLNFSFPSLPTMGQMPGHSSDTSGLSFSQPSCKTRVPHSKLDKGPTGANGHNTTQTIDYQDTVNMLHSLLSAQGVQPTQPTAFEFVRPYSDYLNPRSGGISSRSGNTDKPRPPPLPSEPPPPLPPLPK
# Protocol: as §1
# CK1δ/ε = experiment: CK1 kinase assay; assay type: biochemical, porcine
# Protocol: as §1
# [2] = tested on: RNA polymerase II Ser2 phosphorylation; experiment: Western blot, RNA polymerase II Ser2 phosphorylation in SH-SY5Y; assay type: cell-based, human; conditions: FIG. 10
# Protocol: SH-SY5Y human neuroblastoma cells were grown in DMEM medium (Invitrogen, Cergy Pontoise, France). The HEK 293 human embryonic kidney cell line was grown in MEM medium from Invitrogen. Human foreskin primary fibroblasts (kindly provided by Dr. Gilles Ponzio) were grown in DMEM supplemented with 2 mM L-glutamine and 20 mM HEPES. All the media were supplemented with antibiotics (penicillin-streptomycin) from Lonza and 10% volume of FCS from Invitrogen. Cells were cultured at 37° C. with 5% CO2. Drug treatments were performed on exponentially growing cultures at the indicated time and concentrations. Control experiments were carried out using appropriate dilutions of DMSO. MDCK cell-lines were used to test compounds PKD.
# Cells were resuspended and lysed for 30 minutes at 4° C. in Homogenization Buffer [60 mM β-glycerophosphate, 15 mM p-nitrophenyl phosphate, 25 mM MOPS (pH 7.2), 15 mM EGTA, 15 mM MgCl2, 1 mM dithiothreitol, 1 mM sodium vanadate, 1 mM NaF, 1 mM phenylphosphate, 0.1% Nonidet P-40 and protease inhibitor cocktail] and sonicated. After centrifugation (14000 rpm for 15 minutes at 4° C.), the protein concentration was determined in the supernatants by the Bradford protein assay (Bio-Rad).
# Whole cell extracts were prepared in buffer containing 100 mM Tris/HCl (pH, 6.8), 1 mM EDTA, 2% SDS and protease inhibitor cocktail. Following heat denaturation for 5 minutes, proteins were separated on 10% or 7% NuPAGE pre-cast Bis-Tris or Tris-Acetate polyacrylamide mini gels (Invitrogen) with MOPS SDS (all but cytochrome C, RNA polymerase II and phospho-Ser2—RNA polymerase II Western blots), MES SDS (cytochrome C), or Tris-Acetate SDS (RNA polymerase II and phospho-Ser2—RNA polymerase II) running buffer depending on protein size. Proteins were transferred to 0.45 μm nitrocellulose filters (Schleicher and Schuell). These were blocked with 5% low fat milk in Tris-Buffered Saline—Tween-20, incubated for 1 h with antibodies (anti-actin: 1:2000) or overnight at 4° C. (cytochome C: 1:500), Rb (1:500), phosphor-Rb (1:500), phospho-Thr320-PP1α (1:1000), RNA polymerase II (1:500), phosphor-Ser2-RNA polymerase II (1:500), Mcl-1 (1:500), caspase-9 (1:1000) and analyzed by Enhanced Chemiluminescence (ECL, Amersham).
# Erk2 [3] = target: T3, Erk2 (Sus scrofa, UniProt A0A8W4FG96); experiment: Competition on agarose beads with porcine brain lysate (silver staining assay), Erk2; assay type: binding; conditions: FIG. 1, 500 μM or 100 μM
# T3 construct: 1000 μg of porcine brain lysate; from tissue; host or cells: porcine brain lysate
# T3 sequence (A0A8W4FG96 1-358): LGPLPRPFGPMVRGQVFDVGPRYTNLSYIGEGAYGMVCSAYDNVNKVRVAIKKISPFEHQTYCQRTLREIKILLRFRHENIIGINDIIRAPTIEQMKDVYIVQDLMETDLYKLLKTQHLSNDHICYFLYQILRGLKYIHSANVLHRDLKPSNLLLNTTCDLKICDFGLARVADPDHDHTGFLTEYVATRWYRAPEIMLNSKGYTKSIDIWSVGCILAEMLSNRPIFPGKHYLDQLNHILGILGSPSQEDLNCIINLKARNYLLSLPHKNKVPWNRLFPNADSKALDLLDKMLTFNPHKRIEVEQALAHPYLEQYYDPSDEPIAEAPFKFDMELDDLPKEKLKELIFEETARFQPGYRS
# pyridoxal kinase (PDXK) = target: T4, pyridoxal kinase (PDXK) (Sus scrofa, UniProt O46560); experiment: Competition on agarose beads with porcine brain lysate (silver staining assay), pyridoxal kinase; assay type: binding; conditions: FIG. 1, 500 μM or 100 μM
# T4 construct: 1000 μg of porcine brain lysate; from tissue; host or cells: porcine brain lysate
# T4 sequence (O46560 whole entry): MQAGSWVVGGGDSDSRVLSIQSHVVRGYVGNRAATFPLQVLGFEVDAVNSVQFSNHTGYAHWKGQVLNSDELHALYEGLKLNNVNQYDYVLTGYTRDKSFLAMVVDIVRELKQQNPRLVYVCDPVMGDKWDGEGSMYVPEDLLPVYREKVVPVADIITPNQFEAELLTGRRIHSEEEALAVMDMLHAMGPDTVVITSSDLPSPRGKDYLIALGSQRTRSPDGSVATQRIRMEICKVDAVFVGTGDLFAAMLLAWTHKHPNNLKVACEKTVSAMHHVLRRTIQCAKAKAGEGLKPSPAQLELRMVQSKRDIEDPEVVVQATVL
# Excerpt: Indeed, the interaction of the compounds of the invention with pyridoxal kinase has been determined by the following method: (silver staining assay)
# LS 174T (Oncodesign) = experiment: Cell survival, LS 174T (Oncodesign); assay type: cell-based; conditions: Homo sapiens, LS174T; Table 6
# B2-CLL lymphocytes = experiment: Survival / cell death of B2-CLL lymphocytes from patients; assay type: cell-based, human; conditions: Homo sapiens, Lymphocyte
# Protocol: Cell viability was determined by measuring the reduction of 3-(4,5-dimethylthiazol-2-yl)-5-(3-carboxymethoxyphenyl)-2-(4-sulfophenyl)-2/H-tetrazolium (MTS). Cell death was determined by measuring the level of lactate dehydrogenase activity (LDH) released upon cell lysis.
# Erk2 [4] = target: Erk2 (Homo sapiens, UniProt P28482); experiment: Erk2 kinase assay; assay type: biochemical; conditions: Table 5
# Erk2 (Homo sapiens, UniProt P28482), sequence (P28482 whole entry, species assumed): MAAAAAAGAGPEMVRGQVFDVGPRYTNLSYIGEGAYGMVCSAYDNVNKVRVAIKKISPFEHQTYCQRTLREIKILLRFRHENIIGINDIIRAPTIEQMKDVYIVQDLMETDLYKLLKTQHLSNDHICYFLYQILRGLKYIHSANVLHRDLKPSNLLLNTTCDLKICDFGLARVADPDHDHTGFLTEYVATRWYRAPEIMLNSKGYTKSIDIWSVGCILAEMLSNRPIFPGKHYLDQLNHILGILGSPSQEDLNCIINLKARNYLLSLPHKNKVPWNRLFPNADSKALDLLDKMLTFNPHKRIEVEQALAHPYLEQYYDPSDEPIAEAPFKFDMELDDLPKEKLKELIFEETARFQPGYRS
# Protocol: as §1
# (§5) The compounds were tested at various concentrations in the kinase assays, as described in the Methods section.
# CDK2/cyclin A = target: T5, CDK2/cyclin A (Homo sapiens, UniProt P24941); experiment: CDK2/cyclin A kinase assay; assay type: biochemical; conditions: Table 5; read-out: CDK2/cyclin A
# T5 construct: made in house; host or cells: insect cells
# Protocol: as §1
# CDK2/cyclin A (human, recombinant, expressed in insect cells) was assayed as described for CDK1/cyclin B.
# HCT116 (Oncodesign) = experiment: Cell survival, HCT116 (Oncodesign); assay type: cell-based; conditions: Homo sapiens, HCT-116; Table 6
# DYRK1A = DYRK1A (Homo sapiens, UniProt Q13627); experiment: DYRK1A kinase assay; assay type: biochemical; conditions: Table 5; read-out: DYRK1A
# Protocol: as §1, §5
# CDK2/cyclin E = CDK2/cyclin E (Homo sapiens, UniProt P24941); experiment: CDK2/cyclin E kinase assay; assay type: biochemical; conditions: Table 5
# Protocol: as §2, §5
# [5] = tested on: HEK 293 human embryonic kidney cell line; experiment: Cell survival (MTS assay), HEK293; assay type: cell-based; conditions: HEK293, Table 4, MTS assay
# Protocol: as §4
# [6] = Table 4, MTS assay, read-out: SH-SY5Y cell survival
structure (smiles),measurement,setting,value
"CC(C)n1cnc2c(NCc3ccc(-c4ccccn4)cc3)cc(NC(CO)[C@@H](C)O)nc21 (stereo in doubt) [Ij, (R,R)-2-[[3-isopropyl-7-[[4-(2-pyridyl)phenyl]methylamino]imidazo[4,5-b]pyridin-5-yl]amino]butane-1,3-diol]",IC50,"GSK-3α/β; read-out: Inhibition of GSK3beta, IC50",13000 nM
same,IC50,"CDK5/p25; read-out: Inhibition of CDK5/p25, IC50",180 nM
same,IC50,"[1]; read-out: Inhibition of the tumor cell-line SHSY-5Y, IC50",150 nM
same,IC50,"CDK1/cyclin B; read-out: Inhibition of CDK1/cyclin B, IC50",150 nM
same,IC50,"CDK9/cyclin T; read-out: Inhibition of CDK9/cyclin T, IC50",140 nM
same,IC50,"CK1δ/ε; read-out: Inhibition of CK1, IC50",530 nM
"CC[C@H](CO)Nc1nc(NCc2ccccc2)c2ncn(C(C)C)c2n1 [(R)-Roscovitine, Roscovitine]",total RNA pol II,[2],essentially constant
same,competitor effect for Erk2,Erk2 [3],exhibited a competitor effect
same,competitor effect for pyridoxal kinase (PDXK),pyridoxal kinase (PDXK),exhibited a competitor effect
"CC[C@@H](CO)Nc1cc(NCc2ccc(-c3ccccn3)cc2)c2ncn(C(C)C)c2n1 [(S)-perharidine D, (S)-7-[4-(2-Pyridyl)-benzylaminol]-5-[(2-butyl-1ol)amino]-3-iso-propylimidazo[4,5-b]pyridine]",IC50,"GSK-3α/β; Table 5, read-out: GSK-3α/β",24500 nM
same,IC50,"CDK5/p25; Table 5, read-out: CDK5/p25",200 nM
same,IC50,LS 174T (Oncodesign),99 nM
same,IC50,"B2-CLL lymphocytes; LLC B-cells, read-out: Cell death induction",130 nM
same,IC50,"B2-CLL lymphocytes; Table 6, read-out: Chronic Lymphocytic Leukemia cell survival",130 nM
same,IC50,Erk2 [4],9000 nM
same,IC50,"[1]; Table 6, MTS assay, read-out: SH-SY5Y cell survival",660 nM
same,IC50,CDK2/cyclin A,150 nM
same,IC50,HCT116 (Oncodesign),300 nM
same,IC50,"CDK1/cyclin B; Table 5, read-out: CDK1/cyclin B",270 nM
same,IC50,"CDK9/cyclin T; Table 5, read-out: CDK9/cyclin T",120 nM
same,IC50,DYRK1A,2800 nM
same,IC50,"CK1δ/ε; Table 5, read-out: CK1",1900 nM
same,IC50,CDK2/cyclin E,100 nM
CC(C)n1cnc2c(NCc3ccccc3)cc([N+](=O)[O-])nc21 [Formula Ie],IC50,"GSK-3α/β; Table 4, read-out: GSK3",> 10000 nM
same,IC50,"CDK5/p25; Table 4, read-out: CDK5",800 nM
same,IC50,[1]; [6],74000 nM
same,IC50,[5],46000 nM
same,IC50,"CDK1/cyclin B; Table 4, read-out: CDK1",1000 nM
same,IC50,"CK1δ/ε; Table 4, read-out: CK1",1000 nM
CC(C)n1cnc2c(NCc3ccccc3)cc(N)nc21 [Formula If],IC50,"GSK-3α/β; Table 4, read-out: GSK3",> 10000 nM
same,IC50,"CDK5/p25; Table 4, read-out: CDK5",3800 nM
same,IC50,[1]; [6],> 100000 nM
same,IC50,[5],> 100000 nM
same,IC50,"CDK1/cyclin B; Table 4, read-out: CDK1",4000 nM
same,IC50,"CK1δ/ε; Table 4, read-out: CK1",8000 nM
CC(C)n1cnc2c(NCc3ccccc3)cc(NC(=O)C(F)(F)F)nc21 [Formula Ig],IC50,"GSK-3α/β; Table 4, read-out: GSK3",> 10000 nM
same,IC50,"CDK5/p25; Table 4, read-out: CDK5",630 nM
same,IC50,[1]; [6],> 100000 nM
same,IC50,[5],> 100000 nM
same,IC50,"CDK1/cyclin B; Table 4, read-out: CDK1",530 nM
same,IC50,"CK1δ/ε; Table 4, read-out: CK1",3000 nM
